The values below come from ChEMBL document CHEMBL1671616, “Bloodstream infections caused by extended-spectrum-beta-lactamase- producing Escherichia coli: risk factors for inadequate initial antimicrobial therapy” (2008).

What all share (assay type): functional
Experiment [1] deals with Escherichia coli. Nature of the experiment: Antimicrobial activity against ESBL producing Escherichia coli isolated from patient bloodstream assessed as resistant isolate by Etest method.
Experiment [2] relates to Escherichia coli. The experiment is described as follows: Antimicrobial activity against ESBL producing Escherichia coli isolated from patient bloodstream assessed as resistant isolate by Etest method in presence of clavulanic acid.
Experiment [3] deals with Escherichia coli. The experiment is described as follows: Antimicrobial activity against ESBL producing Escherichia coli isolated from patient bloodstream assessed as resistant isolate by Etest method in presence of Tazobactam.

On to `NCC[C@H](O)C(=O)N[C@@H]1C[C@H](N)[C@@H](O[C@H]2O[C@H](CN)[C@@H](O)[C@H](O)[C@H]2O)[C@H](O)[C@H]1O[C@H]1O[C@H](CO)[C@@H](O)[C@H](N)[C@H]1O` [AMIKACIN], for which the Activity with Escherichia coli [1] came to 0%.

On to `CC1(C)S[C@@H]2[C@H](NC(=O)[C@H](N)c3ccc(O)cc3)C(=O)N2[C@H]1C(=O)O` [AMOXICILLIN], for which, in the experiment with Escherichia coli [2], the Activity came out at 30.2%.

For the molecule `O=C(O)c1cn(C2CC2)c2cc(N3CCNCC3)c(F)cc2c1=O` [CIPROFLOXACIN], the Activity in the experiment on Escherichia coli [1] is listed as 92.2%.

Take `C[C@@H](O)[C@H]1C(=O)N2C(C(=O)O)=C(SCCNC=N)C[C@H]12` [IMIPENEM ANHYDROUS]: in the experiment on Escherichia coli [1], the Activity is 0%.

As for `C[C@H]1COc2c(N3CCN(C)CC3)c(F)cc3c(=O)c(C(=O)O)cn1c23.C[C@H]1COc2c(N3CCN(C)CC3)c(F)cc3c(=O)c(C(=O)O)cn1c23.O` [LEVOFLOXACIN], the Activity in the experiment on Escherichia coli [1] was 92.2%.

Regarding `C[C@@H](O)[C@H]1C(=O)N2C(C(=O)O)=C(S[C@@H]3CN[C@H](C(=O)N(C)C)C3)[C@H](C)[C@H]12` [MEROPENEM], in the experiment with Escherichia coli [1], the Activity amounted to 0%.

Take `C[C@]1(Cn2ccnn2)[C@H](C(=O)O)N2C(=O)C[C@H]2S1(=O)=O` [TAZOBACTAM]: in the experiment on Escherichia coli [3], the Activity was 15.5%.

On to GENTAMICIN, for which the Activity in the experiment with Escherichia coli [1] came to 33.3%.
